From patent US6642227B2, “Inhibitors of c-Jun N-terminal kinases (JNK) and other protein kinases” (Vertex Pharmaceuticals Incorporated, priority 2001, dated 2003)

biological target: human Lck kinase (UniProt P06239); test: Lck inhibition assay (A: radioactivity-based or B: spectrophotometric coupled-enzyme assay); type: biochemical; conditions: read-out: Lck Activity (Ki rating)
Experimental: The compounds were evaluated as inhibitors of human Lck kinase using either a radioactivity-based assay or spectrophotometric assay.
The compounds were assayed as inhibitors of full length bovine thymus Lck kinase (from Upstate Biotechnology, cat. no. 14-106) expressed and purified from baculo viral cells. Lck kinase activity was monitored by following the incorporation of ^33p from ATP into the tyrosine of a random poly Glu-Tyr polymer substrate of composition, Glu:Tyr=4:1 (Sigma, cat. no. P-0275). The following were the final concentrations of the assay components: 0.025 M HEPES, pH 7.6, 10 mM MgCl2, 2 mM DTT, 0.25 mg/ml BSA, 10 μM ATP (1-2 μCi ^33P-ATP per reaction), 5 mg/ml poly Glu-Tyr, and 1-2 units of recombinant human […] kinase. In a typical assay, all the reaction components with the exception of ATP were pre-mixed and aliquoted into assay plate wells. Inhibitors dissolved in DMSO were added to the wells to give a final DMSO concentration of 2.5%. The assay plate was incubated at 30 C. for 10 min before initiating the reaction with ^33P-ATP. After 20 min of reaction, the reactions were quenched with 150 μl of 10% trichloroacetic acid (TCA) containing 20 mM Na3PO4. The quenched samples were then transferred to a 96-well filter plate (Whatman, UNI-Filter GF/F Glass Fiber Filter, cat no. 7700-3310) installed on a filter plate vacuum manifold. Filter plates were washed four times with 10% TCA containing 20 mM Na3PO4 and then 4 times with methanol. 200 μl of scintillation fluid was then added to each well. The plates were sealed and the amount of radioactivity associated with the filters was quantified on a TopCount scintillation counter. The radioactivity incorporated was plotted as a function of the inhibitor concentration. The data was fitted to a competitive inhibition kinetics model to get the Ki for the compound.
The ADP produced from ATP by the human recombinant Lck kinase-catalyzed phosphorylation of poly Glu-Tyr substrate was quanitified using a coupled enzyme assay (Fox et al (1998) Protein Sci 7, 2249). In this assay one molecule of NADH is oxidised to NAD for every molecule of ADP produced in the kinase reaction. The disappearance of NADH can be conveniently followed at 340 nm.
The following were the final concentrations of the assay components: 0.025 M HEPES, pH 7.6, 10 mM MgCl2, 2 mM DTT, 5 mg/ml poly Glu-Tyr, and 50 nM of recombinant human Lck kinase. Final concentrations of the components of the coupled enzyme system were 2.5 mM phosphoenolpyruvate, 200 μM NADH, 30 μg/ml pyruvate kinase and 10 μg/ml lactate dehydrogenase.
In a typical assay, all the reaction components with the exception of ATP were pre-mixed and aliquoted into assay plate wells. Inhibitors dissolved in DMSO were added to the wells to give a final DMSO concentration of 2.5%. The assay plate was incubated at 30° C. for 10 min before initiating the reaction with 150 μM ATP. The absorbance change at 340 nm with time, the rate of the reaction, was monitored on a molecular devices plate reader. The data of rate as a function of the inhibitor concentration was fitted to competitive inhibition kinetics model to get the Ki for the compound.

Structure (SMILES)	Ki
CSc1sc(-c2ccnc(Nc3cccc(OCCCO)c3)n2)c(-c2cccc(OCc3ccccc3)c2)c1C#N [VI-124]	100 to 1000 nM
CSc1sc(-c2ccnc(Nc3cccc(OCCCN4CCNCC4)c3)n2)c(-c2cccc(OCc3ccccc3)c2)c1C#N [VI-125]	100 to 1000 nM
CSc1sc(-c2ccnc(Nc3cccc(OCCCN4CCNCC4)c3)n2)c(-c2cccnc2)c1C#N [VI-123]	100 to 1000 nM
CSc1sc(-c2ccnc(Nc3cccc(OCCCN4CCN(CCO)CC4)c3)n2)c(-c2cccc(OCc3ccccc3)c2)c1C#N [VI-126]	100 to 1000 nM
CSc1sc(-c2nc(Nc3cccc(N)c3)ncc2C)c(C2CCCCC2)c1C#N [Compound V-8, 5-[2-(3-Aminophenylamino)-5-methyl-pyrimidin-4-yl]-4-cyclohexyl-2-methylsulfanyl-thiophene-3-carbonitrile]	< 100 nM
COCCNCCCOc1cccc(Nc2nccc(-c3sc(SC)c(C#N)c3C3CCCCC3)n2)c1 [VI-2]	< 100 nM
CSc1sc(-c2ccnc(Nc3cccc(OCCCN4CCSCC4)c3)n2)c(C2CCCCC2)c1C#N [VI-16]	< 100 nM
CSc1sc(-c2ccnc(Nc3cccc(NC(=O)CCC4NC(=O)CNC4=O)c3)n2)c(-c2cccnc2)c1C#N (centres unmarked) [VI-139]	< 100 nM
CSc1sc(-c2ccnc(Nc3cccc(OCCCN4CCN(Cc5ccncc5)CC4)c3)n2)c(C2CCCCC2)c1C#N [VI-11]	< 100 nM
CSc1sc(-c2ccnc(Nc3cccc(O)c3)n2)c(-c2ccccc2)c1C#N [IIa-40, 5-[2-(3-Hydroxy-phenylamino)-pyrimidin-4-yl]-2-methylsulfanyl-4-phenyl-thiophene-3-carbonitrile]	< 100 nM
CSc1sc(-c2ccnc(Nc3cccc(OCCCNCCO)c3)n2)c(C2CCCCC2)c1C#N [VI-3]	< 100 nM
CSc1sc(-c2ccnc(Nc3cccc(NC(=O)Cc4ccccn4)c3)n2)c(-c2cccnc2)c1C#N [VI-136]	< 100 nM
CSc1sc(-c2ccnc(Nc3cccc(NC(=O)CCN4CCCCC4)c3)n2)c(-c2cccnc2)c1C#N [VI-131]	< 100 nM
CSc1sc(-c2ccnc(Nc3cccc(OCCCN4CCSC4)c3)n2)c(C2CCCCC2)c1C#N [VI-17]	< 100 nM
CSc1sc(-c2ccnc(Nc3cccc(OCCCN4CCC(CO)CC4)c3)n2)c(-c2cccc(O)c2)c1C#N [VI-129]	< 100 nM
CSc1sc(-c2ccnc(Nc3cccc(OCCCN4CCC(CO)CC4)c3)n2)c(-c2cccc(OCc3ccccc3)c2)c1C#N [VI-127]	100 to 1000 nM
CSc1sc(-c2ccnc(Nc3cccc(OCCCN4CCC(O)CC4)c3)n2)c(C2CCCCC2)c1C#N [VI-4]	< 100 nM
CSc1sc(-c2ccnc(Nc3cccc(OCCCn4ccnc4)c3)n2)c(C2CCCCC2)c1C#N [VI-13]	< 100 nM
N#Cc1c(SCc2ccc(O)cc2)sc(-c2ccnc(Nc3ccccc3)n2)c1-c1ccccc1 [IIa-39, 2-(4-Hydroxy-benzylsulfanyl)-4-phenyl-5-(2-phenylamino-pyrimidin-4-yl)-thiophene-3-carbonitrile]	< 100 nM
CSc1sc(-c2ccnc(Nc3cccc(OCCCN4CCN(CCO)CC4)c3)n2)c(-c2cccc(O)c2)c1C#N [VI-128]	< 100 nM
CSc1sc(-c2ccnc(Nc3cccc(OCCCN4CCNCC4)c3)n2)c(C2CCCCC2)c1C#N [VI-10]	< 100 nM
CSc1sc(-c2ccnc(Nc3cccc(OCCCO)c3)n2)c(-c2cccnc2)c1C#N [VI-121]	100 to 1000 nM
CSc1sc(-c2ccnc(Nc3cccc(OCCCN4CCCC(O)C4)c3)n2)c(C2CCCCC2)c1C#N (centres unmarked) [VI-8]	< 100 nM
CSc1sc(-c2ccnc(Nc3cccc(OCCCN4CCCC4)c3)n2)c(-c2cccnc2)c1C#N [VI-122]	< 100 nM

Second part, the molecule after the results:

Ki	Structure (SMILES)
< 100 nM	CSc1sc(-c2ccnc(Nc3cccc(OCCCN4CCN(CCO)CC4)c3)n2)c(C2CCCCC2)c1C#N [VI-7]
< 100 nM	CSc1sc(-c2ccnc(Nc3cccc(NC(=O)CC4CC4)c3)n2)c(-c2cccnc2)c1C#N [VI-138, 3-cyano-4-(3-pyridyl)-5-[2-(3-N-cyclopropylacetamido)-aminophenylamino]-pyrimidin-4-yl-2-thiomethyl thiophene]
< 100 nM	CSc1sc(-c2ccnc(Nc3cccc(S(N)(=O)=O)c3)n2)c(-c2ccccc2)c1C#N [IIa-38, 3-[4-(4-cyano-5-methylsulfanyl-3-phenyl-thiophen-2-yl)-pyrimidin-2-ylamino]-benzenesulfonamide]
< 100 nM	CSc1sc(-c2ccnc(Nc3cccc(OCCCN4CCOCC4)c3)n2)c(C2CCCCC2)c1C#N [VI-15]
< 100 nM	CSc1sc(-c2ccnc(Nc3cccc(O)c3)n2)c(-c2cccc(-c3ccncc3)c2)c1C#N [IIa-105, 5-[2-(3-Hydroxy-phenylamino)-pyrimidin-4-yl]-2-methylsulfanyl-4-(3-pyridin-4-yl-phenyl)-thiophene-3-carbonitrile]
< 100 nM	CSc1sc(-c2ccnc(Nc3cccc(OCCCN(C)CCO)c3)n2)c(C2CCCCC2)c1C#N [VI-1]
< 100 nM	CSc1sc(-c2ccnc(Nc3cccc(OCCCN4CCCC4)c3)n2)c(C2CCCCC2)c1C#N [VI-12]
< 100 nM	CCN1CCN(CCCOc2cccc(Nc3nccc(-c4sc(SC)c(C#N)c4C4CCCCC4)n3)c2)CC1 [VI-9]
< 100 nM	CCN(CC)CCC(=O)Nc1cccc(Nc2nccc(-c3sc(SC)c(C#N)c3-c3cccnc3)n2)c1 [VI-140]
< 100 nM	CSc1sc(-c2ccnc(Nc3cccc(OCCCN4CCC[C@H]4CO)c3)n2)c(C2CCCCC2)c1C#N [VI-6]
< 100 nM	CSc1sc(-c2nc(Nc3cccc(O)c3)ncc2C)c(-c2cccnc2)c1C#N [Compound V-24]
< 100 nM	CSc1sc(-c2ccnc(Nc3cccc(OCCCN4CCC(CO)CC4)c3)n2)c(C2CCCCC2)c1C#N [VI-5]
< 100 nM	CSc1sc(-c2ccnc(Nc3cccc(NC(=O)Cc4csc(N)n4)c3)n2)c(-c2cccnc2)c1C#N [VI-137]
< 100 nM	CSc1sc(-c2ccnc(Nc3cccc(OCCCn4cnc(C)c4)c3)n2)c(C2CCCCC2)c1C#N [VI-14]
